Results reported in patent publication US8076338B2, “Kinase modulators and methods of use” (Exelixis, Inc., priority 2004, dated 2011).
Like-named read-outs stand apart in the source and are kept apart here.

Key:
AktK = AktK (Homo sapiens, UniProt P31749); assay: Luciferase-coupled chemiluminescence kinase assay (ATP consumption); assay type: biochemical; conditions: read-out: AKT-1 IC50
Experimental: (§1) One measure of inhibition is Ki. […] The Ki for a compound is determined from the IC50 based on three assumptions. First, only one compound molecule binds to the enzyme and there is no cooperativity. […] Third, the enzymatic rate of the enzyme-inhibitor complex is zero. The rate data (i.e. compound concentration) are fitted to the equation: […]
(§2) Luciferase-Coupled Chemiluminescence Assay Protocol
(§3) Kinase activity is measured as the percent of ATP consumed following the kinase reaction using luciferase-luciferin-coupled chemiluminescence. Reactions were conducted in 384-well white, medium binding microtiter plates (Greiner). Kinase reactions were initiated by combining test compounds, ATP and kinase in a 20 uL volume. The reaction mixture was incubated at ambient temperature for 3 hrs. For p70S6K and/or AktK, 2.5-5 nM of the enzyme was pre-incubated with compound in 20 mM Tris pH 7.5, 10 mM MgCl2, 0.03% TX-100, and 1 mM DTT for 30 minutes at room temperature. Following the kinase reaction, a 20 μL aliquot of luciferase-luciferin mix was added and the chemiluminescence signal measured using a Victor^2 plate reader (Perkin Elmer). The luciferase-luciferin mix contained 50 mM HEPES, pH 7.8, 67 mM oxalic acid (pH 7.8), 5 (or 50) mM DTT, 0.4% Triton X-100, 0.25 mg/mL coenzyme A, 63 μM AMP, 28 μg/1 mL luciferin and 40,000 units/mL luciferase. Total ATP consumption was limited to 25-60% and the IC50 values correlate well with those determined by radiometric assays.

p70S6K = p70S6K (Homo sapiens, UniProt P23443); assay: as above; assay type: biochemical
Chain of p70S6K (P23443 whole entry): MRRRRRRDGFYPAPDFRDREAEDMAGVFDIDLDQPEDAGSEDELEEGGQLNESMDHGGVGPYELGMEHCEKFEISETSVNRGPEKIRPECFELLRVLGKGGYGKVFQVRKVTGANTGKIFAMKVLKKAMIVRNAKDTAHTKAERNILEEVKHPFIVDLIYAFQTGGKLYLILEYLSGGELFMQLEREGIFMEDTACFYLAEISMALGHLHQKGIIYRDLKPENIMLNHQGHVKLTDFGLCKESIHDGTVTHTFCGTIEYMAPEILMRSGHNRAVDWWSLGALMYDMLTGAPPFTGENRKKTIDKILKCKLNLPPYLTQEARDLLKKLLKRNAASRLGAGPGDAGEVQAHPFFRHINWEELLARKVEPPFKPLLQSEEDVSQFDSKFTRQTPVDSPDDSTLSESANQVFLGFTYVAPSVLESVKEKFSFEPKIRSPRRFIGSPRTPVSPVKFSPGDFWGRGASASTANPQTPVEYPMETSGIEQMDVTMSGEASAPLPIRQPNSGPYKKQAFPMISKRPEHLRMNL
Experimental: as §1, §2, §3

Chain of AktK (P31749 whole entry): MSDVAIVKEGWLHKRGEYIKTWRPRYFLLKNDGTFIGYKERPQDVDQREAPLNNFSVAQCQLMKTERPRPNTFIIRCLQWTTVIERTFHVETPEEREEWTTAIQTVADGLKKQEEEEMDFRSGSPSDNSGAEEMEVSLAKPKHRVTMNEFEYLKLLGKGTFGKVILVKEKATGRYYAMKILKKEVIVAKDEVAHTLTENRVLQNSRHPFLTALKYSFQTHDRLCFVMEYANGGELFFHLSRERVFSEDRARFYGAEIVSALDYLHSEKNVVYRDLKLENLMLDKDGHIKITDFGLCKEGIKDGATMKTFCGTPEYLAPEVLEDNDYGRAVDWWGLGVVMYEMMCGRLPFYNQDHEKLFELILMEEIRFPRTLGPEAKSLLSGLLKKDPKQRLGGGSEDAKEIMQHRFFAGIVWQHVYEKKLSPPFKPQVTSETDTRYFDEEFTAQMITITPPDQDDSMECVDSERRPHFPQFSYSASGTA

Row | SMILES | IC50 (AktK; Table 1, class symbols per key) | IC50 (p70S6K; Table 1, class symbols per key) | IC50 (AktK) | IC50 (p70S6K)
1 | CCCC(O)c1cc(NCCN2CCCC2)c(C)c(N2CCN(c3ncnc4[nH]nc(Br)c34)CC2)c1 (stereo not drawn) [Entry 286, 1-{3-[4-(3-bromo-1H-pyrazolo[3,4-d]pyrimidin-4-yl)piperazin-1-yl]-4-methyl-5-[(2-pyrrolidin-1-ylethyl)amino]phenyl}butan-1-ol] | < 0.1 µM | < 0.1 µM |  | 
2 | CCc1n[nH]c2ncnc(N3CCN(c4cccc(OC)c4C)CC3)c12 [Entry 145, 3-ethyl-4-{4-[2-methyl-3-(methyloxy)phenyl]piper-azin-1-yl}-1H-pyrazolo[3,4-d]pyrimidine] | ≥ 10 µM | < 0.1 µM |  | 
3 | CCc1n[nH]c2ncnc(N3CCN(c4cc(Cl)cc(OCC5CCN(C)CC5)c4C)CC3)c12 [Entry 31, 4-[4-(5-chloro-2-methyl-3-{[(1-methylpiperidin-4-yl)methyl]oxy}phenyl)piperazin-1-yl]-3-ethyl-1H-pyrazolo[3,4-d]pyrimidine] | 0.1 to 1 µM | < 0.1 µM |  | 
4 | CCc1n[nH]c2ncnc(N3CCN(c4cc(Cl)ccc4C)CC3)c12 [Entry 323, 4-[4-(5-chloro-2-methylphenyl)piperazin-1-yl]-3-ethyl-1H-pyrazolo[3,4-d]pyrimidine] |  |  | 1 to 10 µM | < 0.1 µM
5 | Fc1ccc(N2CCN(c3ncnc4[nH]cnc34)CC2)cc1 [Entry 309, 6-[4-(4-fluorophenyl)piperazin-1-yl]-9H-purine] |  |  | ≥ 10 µM | 1 to 10 µM
6 | FC(F)(F)c1cnc(N2CCN(c3ncnc4[nH]nc(Br)c34)CC2)c(Cl)c1 [Entry 136, 3-bromo-4-{4-[3-chloro-5-(trifluoromethyl)pyridin-2-yl]piperazin-1-yl}-1H-pyrazolo[3,4-d]pyrimidine] | ≥ 10 µM | 1 to 10 µM |  | 
7 | Cc1c(NCCN2CCCC2)cc(Cl)cc1N1CCN(c2ncnc3[nH]nc(C(C)C)c23)CC1 [Entry 138, 5-chloro-2-methyl-3-{4-[3-(1-methylethyl)-1H-pyrazolo[3,4-d]pyrimidin-4-yl]piperazin-1-yl}-N-(2-pyrrolidin-1-ylethyl)aniline] | 1 to 10 µM | < 0.1 µM |  | 
8 | Cc1ccc(Cl)cc1N1CCN(c2ncnc3[nH]nc(/C=C/C(=O)OC(C)(C)C)c23)CC1 [Entry 387, 1,1-dimethylethyl (2E)-3-{4-[4-(5-chloro-2-methylphenyl)piperazin-1-yl]-1H-pyrazolo[3,4-d]pyrimidin-3-yl}prop-2-enoate] |  |  | 1 to 10 µM | 0.1 to 1 µM
9 | CCc1n[nH]c2ncnc(N3CCN(c4nc(C)cc(C)n4)CC3)c12 [Entry 111, 4-[4-(4,6-dimethylpyrimidin-2-yl)piperazin-1-yl]-3-ethyl-1H-pyrazolo[3,4-d]pyrimidine] | ≥ 10 µM | 1 to 10 µM |  | 
10 | CCc1n[nH]c2ncnc(N3CCN(c4cc(C(F)(F)F)ccc4Cl)CC3)c12 [Entry 171, 4-{4-[2-chloro-5-(trifluoromethyl)phenyl]piperazin-1-yl}-3-ethyl-1H-pyrazolo[3,4-d]pyrimidine] | 1 to 10 µM | < 0.1 µM |  | 
11 | CCc1n[nH]c2ncnc(N3CCN(c4cccc(Cl)c4)CC3C(=O)NC)c12 (stereo not drawn) [Entry 362, 4-(3-chlorophenyl)-1-(3-ethyl-1H-pyrazolo[3,4-d]pyrimidin-4-yl)-N-methylpiperazine-2-carboxamide] |  |  |  | 1 to 10 µM
12 | CC(C)=CCc1n[nH]c2ncnc(N3CCN(c4cc(Cl)ccc4C)CC3)c12 [Entry 347, 4-[4-(5-chloro-2-methylphenyl)piperazin-1-yl]-3-(3-methylbut-2-en-1-yl)-1H-pyrazolo[3,4-d]pyrimidine] |  |  |  | < 0.1 µM
13 | Cc1ccccc1N1CCN(c2ncnc3[nH]nc(C)c23)CC1 [Entry 319, 3-methyl-4-[4-(2-methylphenyl)piperazin-1-yl]-1H-pyrazolo[3,4-d]pyrimidine] |  |  |  | < 0.1 µM
14 | Cc1ccc(Cl)cc1N1CCN(c2ncnc3[nH]nc(-c4ccc(OCC5CCNCC5)cc4)c23)CC1 [Entry 359, 4-[4-(5-chloro-2-methylphenyl)piperazin-1-yl]-3-{4-[(piperidin-4-ylmethyl)oxy]phenyl}-1H-pyrazolo[3,4-d]pyrimidine] |  |  |  | 0.1 to 1 µM
